Tests used:
[1] = system: e. coli; experiment: Antimicrobial activity, modified AATCC TM 100-2012 for solid and composite materials; assay type: cell-based; details: 1.0% Wt. Fract. ZnO in a direct filling composite resin
Method: (§1) Zinc oxide has been tested for antimicrobial activity in this invention according to a test that is based upon the International Standard AATCC TM 100-2012. The AATCC TM 100-2012 standard tests for microbial activity on textiles, so the test was modified for use on solid and composite materials.
(§2) As discussed above, microbial activity is measured using a modified AATCC TM 100-2012 standard for use on solid and composite materials.

[2] = system: strep mutans; experiment: as above; assay type: cell-based; details: 1.0% Wt. Fract. ZnO in a direct filling composite resin
Method: as §1, §2

[3] = system: bacteria; experiment: Antimicrobial activity, modified AATCC TM 100-2012 (general statement); assay type: cell-based; details: modified AATCC TM 100-2012 test
Description: as §1

[4] = Translucency of a direct filling composite resin; assay type: physicochemical
Description: When zinc oxide is incorporated into a chemical for use in the oral cavity, it is typically incorporated for its function as an opacifying agent and can be added to a product for this function alone. However, there is a limit to the amount that can be added. Resins are esthetic restorative materials and require high translucency to be esthetic. For this reason, the amount of zinc oxide that may be added is limited to less than 0.8 wt. fract. See Table 5 for the upper limits of zinc oxide that can be incorporated into a direct fill composite resin while maintaining high translucency.
In Table 5, as the wt. fraction of Zinc Oxide is increased, the opacity also increases to a level that is not considered suitable for use as a dental composite resin for esthetic purposes. For esthetic purposes, the dental composite resin must be sufficiently translucent to mimic the appearance of natural dentin. Beyond this level, the opacity becomes too high and the restoration appears as chalky white.

For [O]=[Zn] [Zinc Oxide, zinc oxide], which “% Reduction of e coli” value [1] is on record?
Its value is 100%.

And the “% reduction of strep mutans” value [2]?
Its value is 100%.

What about the antimicrobial activity [3] of the same compound?
Its antimicrobial activity is “effective in killing bacteria”.

And the Translucency ([4]; Wt. Fract. ZnO 0.8 in a direct filling composite resin)?
Its Translucency is “pass”.

And the Translucency ([4]; Wt. Fract. ZnO 1.0 in a direct filling composite resin)?
The Translucency was “fail”.

Reference: patent publication US20200009020A1, “Caries-Resistant Composite Resin” (Den-Mat Holdings, LLC, priority 2016, published 2020)
